The values that follow come from PubChem BioAssay AID588377 (NMMLSC, 2011).

pEC50: −log10 of the molar value.

The term pEC50 denotes −log10 of the EC50, conventionally taken in molar units.

The target of the test is Cell division control protein 42 homolog (Homo sapiens) (UniProt P60953). Briefly: wildtype Cdc42 GTP-binding inhibitors, SAR follow-up, biochemical, multiplex bead flow cytometry, round 1 (AID 588377). To be noted: GST-Cdc42 wt beads, fluorescent GTP binding. For orientation: Flow cytometry measures light scatter and fluorescence of single cells or particles in a stream.
Chain of Cell division control protein 42 homolog (Homo sapiens) (P60953 whole entry, looked up): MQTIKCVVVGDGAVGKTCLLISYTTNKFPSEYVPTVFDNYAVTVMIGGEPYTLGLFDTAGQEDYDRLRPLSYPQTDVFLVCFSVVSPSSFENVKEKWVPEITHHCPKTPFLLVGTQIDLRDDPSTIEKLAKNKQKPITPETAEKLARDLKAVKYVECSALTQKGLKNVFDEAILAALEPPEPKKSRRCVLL
As for `COc1ccc(C2CC(c3ccccc3)=NN2c2ccc(S(N)(=O)=O)cc2)cc1` (stereo not drawn), the pEC50 is 6.08.
For the compound `O=C(C#Cc1ccccc1)c1cccc([N+](=O)[O-])c1`, the negative-log EC50 (pEC50) was 5.40.
With `NS(=O)(=O)c1ccc(N2N=C(c3ccccc3)CC2c2ccccc2)cc1` (stereo not drawn) the figure was 5.38.
